Substitutions are numbered along the chain they refer to.
What was measured:
K2P2.1 (TREK-1) = target: T1, K2P2.1 (TREK-1) (Mus musculus, UniProt P97438); assay: Two-electrode voltage clamp (TEVC) in Xenopus oocytes; type: cell-based; conditions: for Fold-activation (I activator/I control): currents at 0 mV
T1 construct: expressed in transfected cells; host or cells: Xenopus laevis oocytes injected with mRNA (pGEMHE/pMO vector)
T1 sequence (P97438 1-411 isoform P97438-2): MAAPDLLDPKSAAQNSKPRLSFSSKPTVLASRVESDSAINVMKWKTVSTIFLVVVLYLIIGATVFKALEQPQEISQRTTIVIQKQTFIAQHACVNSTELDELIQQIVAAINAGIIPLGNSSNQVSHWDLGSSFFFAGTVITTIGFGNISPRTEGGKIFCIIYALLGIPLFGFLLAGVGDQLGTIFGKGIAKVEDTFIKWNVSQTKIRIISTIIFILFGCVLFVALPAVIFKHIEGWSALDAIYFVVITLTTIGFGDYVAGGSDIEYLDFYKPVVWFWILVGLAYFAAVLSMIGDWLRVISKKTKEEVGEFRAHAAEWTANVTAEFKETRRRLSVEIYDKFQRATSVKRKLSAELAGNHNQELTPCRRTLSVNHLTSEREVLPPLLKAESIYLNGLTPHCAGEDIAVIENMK
Description: (§1) Mouse K2P2.1 (TREK-1) (Genbank accession number: NP_034737.2), mouse K2P10.1 (TREK-2) (NM_001316665.1), mouse K2P4.1 (TRAAK) (NM_008431.3), human K2P4.1 (TRAAK) (NM_033310.2) and mouse K2P18.1(TRESK) (NM_207261.3) were used for this study. Point mutations were introduced by site-directed mutagenesis using custom primers and confirmed by sequencing before use. For studies using Xenopus oocytes, K2P channels were subcloned into a previously reported pGEMHE/pMO vector (46). For expression in HEK293 cells, mouse K2P2.1 (TREK-1) and mutants were expressed from a previously described pIRES2-EGFP vector in HEK293 cells (46,47). K2P2.1 (TREK-1) tandems were constructed by connecting the open reading frames for the individual subunits with a linker encoding the […] (SEQ ID NO: 19) sequence. Tandems used for HEK293 cells included an N-terminal HA tag ([…] (SEQ ID NO: 20)) on the first subunit.
Xenopus laevis oocytes were harvested according to UCSF IACUC Protocol AN129690 and digested using collagenase (Worthington Biochemical Corporation, #LS004183, 0.8-1.0 mg/mL) in Ca^21-free ND96 (96 mM NaCl, 2 mM KCl, 3.8 mM MgCl2, 5 mM HEPES pH 7.4) immediately post-harvest, as previously reported (31,33). Oocytes were maintained at 18° C. in ND96 (96 mM NaCl, 2 mM KCl, 1.8 mM CaCl2, 2 mM MgCl2, 5 mM HEPES pH 7.4) supplemented with antibiotics (100 units mL^−1 penicillin, 100 μg mL^−1 streptomycin, 50 μg mL^−1 gentimycin) and used for experiments within one week of harvest.
Defolliculated stage V-VI oocytes were microinjected with 0.5-36 ng mRNA and currents were recorded within 16-48 h hours of injection.
For recordings, oocytes were impaled with borosilicate recording microelectrodes (0.4-2.0 MΩ resistance) backfilled with 3 M KCl and were subjected to constant perfusion of ND96 at a rate of 3 ml min^−1. Recording solutions containing K2P activators were prepared immediately prior to use from DMSO stocks (20-100 mM), with final DMSO concentrations of 0.1%. Currents were evoked from a −80 mV holding potential followed by a 300 ms ramp from −150 mV to +50 mV. Data were recorded using a GeneClamp 500B amplifier (MDS Analytical Technologies) controlled by pCLAMP8 software (Molecular Devices), and digitized at 1 kHz using Digidata 1332 Å digitizer (MDS Analytical Technologies). For each recording, control solution (ND96) was perfused over a single oocyte until current was stable before switching to solutions containing the test compounds at various concentrations. Representative traces and dose response plots were generated in GraphPad Prism 9.

TREK-1^CG* = target: T2, TREK-1^CG* (Mus musculus, UniProt P97438, S146C); assay: Whole-cell patch clamp in transfected HEK293 cells; type: cell-based; conditions: 20 μM; for Fold-activation (I activator/I control): whole-cell currents
T2 construct: expressed in transfected cells; host or cells: HEK293 (pIRES2-EGFP vector)
T2 sequence (P97438 1-411 isoform P97438-2 S131C): T1 sequence (P97438 1-411 isoform P97438-2) with S131C
Description: as §1
50% confluent cells were co-transfected (in 35-mm diameter wells) with 10-100 ng of the K2P2.1 plasmid and 400 ng of an eGFP plasmid (for visualization) using LipofectAMINE 2000 (Invitrogen) for 24 h, after which the cells were either plated onto coverslips or the media exchanged with fresh media. Cells were plated onto Matrigel coated coverslips (BD Biosciences) 1-2 hours before experiments.
Whole-cell patch-clamp experiments with K2P2.1(TREK-1) and mutants were carried out 24-48 h after transfection. Acquisition and analysis for voltage-clamp experiments were performed using pCLAMP10 and an Axopatch 200B amplifier (Molecular Devices). Current-clamp experiments were acquired using an […] amplifier (Molecular Devices). Pipettes were pulled using a Flaming/Brown micropipette puller (P-97, Sutter Instruments) and flame-polished using a MF-830 microforge (Narishige). Electrode resistance after filling with pipette internal solution ranged from 2 to 5 MΩ. Currents were low-pass filtered at 2 kHz and sampled at 10 kHz. Pipette solution contained the following: 145 mM KCl, 3 mM MgCl2, 5 mM EGTA and 20 mM HEPES (pH 7.2 with KOH). Bath solution contained the following: 145 mM NaCl, 5 mM KCl, 1 mM CaCl2, 3 mM MgCl2 and 20 mM HEPES (pH 7.4 with NaOH). K2P2.1 currents were elicited by a 1 s ramp from −100 to +50 mV from a −80 mV holding potential. Current-clamp recordings were taken with no holding current (I=0). Only K2P2.1(TREK-1)^CG* whole-cell patches with basal currents between […] at 0 mV were used Criteria for A286F K2P2.1(TREK-1)^CG*. ML335 or CAT335 were applied at 20 μM in bath solution and were perfused at 3 ml min^−1 until potentiation stabilized (1-3 min). Data were analyzed using Clampfit 11 and GraphPad Prism 9.

| SMILES | Fold-activation after compound washout (K2P2.1 (TREK-1); 20 μM, after washout, Xenopus oocytes) | Fold-activation (I activator/I control) (K2P2.1 (TREK-1); 20 μM, Xenopus oocytes) | Reversibility of activation on washout (TREK-1^CG*) | Fold-activation (I activator/I control) (TREK-1^CG*) | Reversibility of activation on washout (K2P2.1 (TREK-1); 20 μM, Xenopus oocytes) | Emax (IML335/Icontrol) (K2P2.1 (TREK-1); TEVC at 0 mV) | EC50 (K2P2.1 (TREK-1); TEVC at 0 mV, normalized to initial currents) |
| --- | --- | --- | --- | --- | --- | --- | --- |
| O=C(NCc1ccc(Cl)cc1Cl)c1ccc(N2C(=O)C=CC2=O)cc1 [CAT335] | 4.0 ± 0.6 fold | 2.0±0.2 fold | irreversible | 8.5 ± 1.5 fold |  |  |  |
| CS(=O)(=O)Nc1ccc(C(=O)NCc2ccc(Cl)cc2Cl)cc1 [ML335, reference compound] |  | 6.5 fold |  | 3.7 ± 0.4 fold | immediate reversal | 15.8±1.3 fold activation | 24 ± 4 µM |
